The EC50 is the concentration needed to bring the measured effect to its halfway point. As a reminder, the Emax is the size of the effect at its maximum, as opposed to the concentration needed.

Experimental findings from PMC12775434, “Ultra-large virtual screening unveils potent agonists of the neuromodulatory orphan receptor GPR139” (Nature Communications, 2025) are described below.

Common to all, as to format: cell-based
The target of test [1] is T1, human muscarinic acetylcholine M1 receptor (M1R) (Homo sapiens, UniProt P11229).
T1 sequence (P11229 1-460): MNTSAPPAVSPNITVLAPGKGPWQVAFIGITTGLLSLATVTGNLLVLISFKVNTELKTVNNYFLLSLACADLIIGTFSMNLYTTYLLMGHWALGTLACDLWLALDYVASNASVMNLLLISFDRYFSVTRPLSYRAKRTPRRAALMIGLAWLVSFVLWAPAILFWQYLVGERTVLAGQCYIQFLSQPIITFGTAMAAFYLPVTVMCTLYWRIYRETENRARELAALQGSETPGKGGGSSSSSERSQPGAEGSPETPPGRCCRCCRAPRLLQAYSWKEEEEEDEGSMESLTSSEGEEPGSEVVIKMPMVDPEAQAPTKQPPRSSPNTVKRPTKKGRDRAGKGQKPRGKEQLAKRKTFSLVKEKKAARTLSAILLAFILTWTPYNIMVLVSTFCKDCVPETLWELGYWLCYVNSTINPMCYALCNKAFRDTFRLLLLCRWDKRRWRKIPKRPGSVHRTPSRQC
The experiment in a line: Ca2+ mobilization counter-screen in M1R-CHOk1 cells. Conditions: individual replicates (Supplementary Figure 2). Summed up:
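Intracellular calcium flux was measured by fluorescence (485 nm excitation, 525 nm emission) at 37 °C after automated compound addition following baseline, with final DMSO ≤0.3%. CHO-K1 cells stably expressing human M1R were plated 20–24 h beforehand. Cells were dye-loaded with 2 µM Fluo-4 AM for 1 h in pH 7.4 HEPES/HBSS containing 2.5 mM probenecid.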
Background: Calcium flux is commonly read through the fluorescence of an indicator in the cells.

Test [2] addresses T2, GPR139 (Homo sapiens, UniProt Q6DWJ6).
T2 sequence (Q6DWJ6 1-353): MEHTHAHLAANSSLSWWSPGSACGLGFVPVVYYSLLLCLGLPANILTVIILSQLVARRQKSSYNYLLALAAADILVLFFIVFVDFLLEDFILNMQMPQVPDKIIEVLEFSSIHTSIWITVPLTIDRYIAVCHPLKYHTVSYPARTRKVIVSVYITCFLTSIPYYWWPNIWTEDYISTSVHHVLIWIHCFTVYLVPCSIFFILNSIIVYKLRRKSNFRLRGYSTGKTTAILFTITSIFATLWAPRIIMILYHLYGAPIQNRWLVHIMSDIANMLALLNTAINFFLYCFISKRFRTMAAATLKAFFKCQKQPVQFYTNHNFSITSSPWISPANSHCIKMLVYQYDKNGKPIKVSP
The experiment in a line: Ca2+ mobilization assay, antagonist mode (EC80 800 nM Lundbeck Cmp 1a after 20 min preincubation), GPR139-CHOk1. Conditions: individual replicates (Supplementary Figure 1). Summed up: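 Antagonist mode: 800 nM (EC80) reference agonist Lundbeck Cmp 1a added following 20 min pre-incubation with 10 µM compound. GPR139-CHOk1 cells, Fluo-4 dye, probenecid-containing HEPES buffer pH 7.4; intracellular Ca2+ measured at 37 °C (ex 485, em 525 nm).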

The target in test [3] is T2, GPR139. The experiment in a line: Ca2+ mobilization assay, agonist mode, stable GPR139-CHOk1 cell line. In short, it runs like this:
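Agonist activity of compounds is assessed in stably transfected CHO-K1 cells using the calcium dye Fluo-4 at 37 °C in HEPES-buffered HBSS (pH 7.4). Efficacy is expressed relative to the reference agonist Lundbeck Cmp 1a, set as 100%.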

Molecules are shown by their SMILES. Several values for one entry are separate records, joined by “and”; a condition that tells them apart may be missing. Identical values can stand only once.

On to `CC(NC(=O)Cn1cncc(-c2ccccc2)c1=O)c1ccccc1` (stereo not shown) [Compound 5, C[C@@H](NC(=O)CN1C=NC=C(C=2C=CC=CC2)C1=O)C=3C=CC=CC3], for which, in test [1], the “Ca2+ signal (% of Carbachol)” value is -15 % of Carbachol and -5 % of Carbachol. In addition, the “Ca2+ signal (% of Cmp 1a)” value at GPR139 [2] was 38.6236 % of Cmp 1a and 37.7276 % of Cmp 1a and 30.4652 % of Cmp 1a; at GPR139 [3] (0.1 µM, individual replicates (Supplementary Figure 3)), 0.9 % of Cmp 1a and -12.1 % of Cmp 1a; at GPR139 [3] (1 µM, individual replicates (Supplementary Figure 3)), 17.5 % of Cmp 1a and 11.9 % of Cmp 1a; at GPR139 [3] (10 µM, individual replicates (Supplementary Figure 3)), 52.6 % of Cmp 1a and 31.9 % of Cmp 1a; on GPR139 [3] (Agonist mode, individual replicates (Supplementary Figure 1)), 71 % of Cmp 1a and 78 % of Cmp 1a and 63 % of Cmp 1a; on GPR139 [3] (log [Compound] M -4.5, replicate experiments), 91 % of Cmp 1a and 74 % of Cmp 1a and 86 % of Cmp 1a. In addition, the “Ca2+ signal (% of Cmp 1a)” value was 75 % of Cmp 1a and 51 % of Cmp 1a and 76 % of Cmp 1a on GPR139 [3] (log [Compound] M -5.0, replicate experiments); 60 % of Cmp 1a and 41 % of Cmp 1a and 50 % of Cmp 1a on GPR139 [3] (log [Compound] M -5.5, replicate experiments); 23 % of Cmp 1a (2×) and 24 % of Cmp 1a on GPR139 [3] (log [Compound] M -6.0, replicate experiments); 16 % of Cmp 1a (2×) and 0.619 % of Cmp 1a on GPR139 [3] (log [Compound] M -6.5, replicate experiments); 11 % of Cmp 1a at GPR139 [3] (log [Compound] M -7.0, replicate experiments); 9 % of Cmp 1a and 2.21 % of Cmp 1a and 7 % of Cmp 1a at GPR139 [3] (log [Compound] M -7.5, replicate experiments). In addition, the “Ca2+ signal (% of Cmp 1a)” value on GPR139 [3] (log [Compound] M -8.0, replicate experiments) was 3.64 % of Cmp 1a and 0.518 % of Cmp 1a and 5.27 % of Cmp 1a; at GPR139 [3] (log [Compound] M -8.5, replicate experiments), 13 % of Cmp 1a and 0.00547 % of Cmp 1a and 8 % of Cmp 1a; on GPR139 [3] (log [Compound] M -9.0, replicate experiments), 7 % of Cmp 1a and -1.29 % of Cmp 1a and 10 % of Cmp 1a; at GPR139 [3] (primary screen, 10 µM compound, agonist mode, three columns = independent experiments) it was 71 % of Cmp 1a and 78 % of Cmp 1a and 63 % of Cmp 1a. The EC50 on GPR139 [3] (GPR139-CHOk1, read-out: EC50, Ca2+ mobilization) came to 3.6 µM. On GPR139 [3] (Supplementary Table 2, normalized to Lundbeck Cmp 1a, mean ± SEM, read-out: Emax (%) Ca2+), the Emax is 88 ± 4%.
